Measured values taken from ChEMBL document CHEMBL5634079, “Development of novel celastrol-ligustrazine hybrids as potent peroxiredoxin 1 inhibitors against lung cancer” (Eur J Med Chem, 2023).
Activity calls are given as the source filed them. The rule behind the calls is not given here.

Legend:
A549 [1] = assay: Induction of apoptosis in human A549 cells assessed as increase in cleaved caspase-8 expression at 2 to 4 uM by Western blot analysis; format: functional, cell-based; conditions: dose 2-4 µM
[2] = Toxicity in C57BL/6J mouse implanted with mouse Lewis lung carcinoma cell line assessed as spleen damage at 0.5 to 1 mg/kg, ip administered every day for 19 days; format: organism-based; conditions: in vivo, 456 h, dose 0.5-1 mg/kg, time 19 day
A549 [3] = assay: Antiproliferative activity against human A549 cells assessed as inhibition of cell growth incubated for 48 hrs by MTT assay; format: functional, cell-based; conditions: A549, 48 h
A549 [4] = assay: Downregulation of PRDX5 level in human A549 cells at 2 to 4 uM by Western blot analysis; format: functional, cell-based; conditions: dose 2-4 µM
NCI-H1975 = assay: Antiproliferative activity against human NCI-H1975 cells assessed as inhibition of cell growth incubated for 48 hrs by MTT assay; format: functional, cell-based; conditions: NCI-H1975, 48 h
[5] = Antitumor activity against mouse Lewis lung carcinoma cell line implanted in C57BL/6J mouse assessed as tumor growth inhibition at 0.5 mg/kg, ip administered every day for 19 days; format: functional; conditions: 456 h, time 19 day, read-out: TGI
A549 [6] = assay: Inhibition of ERK phosphorylation in human A549 cells at 2 to 4 uM by Western blot analysis; format: cell-based; conditions: dose 2-4 µM
[7] = molecular target: RAF proto-oncogene serine/threonine-protein kinase (Homo sapiens) (UniProt P04049); assay: Inhibition of C-RAF phosphorylation in human A549 cells at 2 to 4 uM by Western blot analysis; format: cell-based; conditions: dose 2-4 µM
RAF proto-oncogene serine/threonine-protein kinase (Homo sapiens), sequence (P04049 whole entry): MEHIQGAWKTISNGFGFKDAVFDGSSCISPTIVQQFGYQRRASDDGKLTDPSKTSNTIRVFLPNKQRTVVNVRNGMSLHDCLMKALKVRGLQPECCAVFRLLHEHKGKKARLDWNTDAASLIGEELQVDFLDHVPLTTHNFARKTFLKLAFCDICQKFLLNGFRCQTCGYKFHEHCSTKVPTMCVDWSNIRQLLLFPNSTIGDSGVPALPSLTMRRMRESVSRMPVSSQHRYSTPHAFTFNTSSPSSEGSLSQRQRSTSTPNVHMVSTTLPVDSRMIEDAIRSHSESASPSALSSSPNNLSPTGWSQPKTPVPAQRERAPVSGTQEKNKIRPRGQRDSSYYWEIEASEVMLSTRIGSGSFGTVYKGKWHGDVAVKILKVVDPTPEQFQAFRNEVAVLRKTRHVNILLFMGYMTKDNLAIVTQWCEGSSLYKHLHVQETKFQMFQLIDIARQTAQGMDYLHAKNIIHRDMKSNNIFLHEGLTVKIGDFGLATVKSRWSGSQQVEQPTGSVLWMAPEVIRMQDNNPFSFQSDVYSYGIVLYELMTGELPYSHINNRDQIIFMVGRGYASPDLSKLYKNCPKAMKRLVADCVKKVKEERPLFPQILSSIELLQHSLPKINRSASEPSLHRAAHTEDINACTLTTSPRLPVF

A549 [8] = assay: Induction of apoptosis in human A549 cells assessed as increase in cleaved caspase-3 expression at 2 to 4 uM by Western blot analysis; format: functional, cell-based; conditions: dose 2-4 µM
[9] = Toxicity in C57BL/6J mouse implanted with mouse Lewis lung carcinoma cell line assessed as kidney damage at 0.5 to 1 mg/kg, ip administered every day for 19 days; format: organism-based; conditions: in vivo, 456 h, dose 0.5-1 mg/kg, time 19 day
A549 [10] = assay: Inhibition of PI3K phosphorylation in human A549 cells at 2 to 4 uM by Western blot analysis; format: cell-based; conditions: dose 2-4 µM
[11] = Toxicity in C57BL/6J mouse implanted with mouse Lewis lung carcinoma cell line assessed as liver damage at 0.5 to 1 mg/kg, ip administered every day for 19 days; format: organism-based; conditions: in vivo, 456 h, dose 0.5-1 mg/kg, time 19 day
SK-HEP1 = assay: Antiproliferative activity against human SK-HEP1 cells assessed as inhibition of cell growth incubated for 48 hrs by MTT assay; format: functional, cell-based; conditions: SK-HEP1, 48 h
A549 [12] = assay: Induction of intracellular ROS generation in human A549 cells at 2 to 4 uM incubated for 6 hrs by DCFH-DA staining based flow cytometry analysis; format: functional, cell-based; conditions: dose 2-4 µM
Lewis lung carcinoma [13] = assay: Antitumor activity against mouse Lewis lung carcinoma cell line implanted in C57BL/6J mouse assessed as tumor cell contraction at 0.5 to 1 mg/kg, ip administered every day for 19 days by H and E staining based analysis; format: functional, organism-based; conditions: dose 0.5-1 mg/kg, time 19.0 day
A549 [14] = assay: Inhibition of cell migration in human A549 cells at 2 to 4 uM incubated for 24 hrs by inverted microscopic analysis; format: functional, cell-based; conditions: dose 2-4 µM
[15] = Antiproliferative activity against human LTEP-a2 cells assessed as inhibition of cell growth incubated for 48 hrs by MTT assay; format: functional, cell-based; conditions: LTEP-A2, 48 h
A549 [16] = assay: Induction of apoptosis in human A549 cells assessed as late apoptotic cells at 2 uM incubated for 48 hrs by Annexin V-FITC and PI staining based flow cytometric analysis (reference value: 0.73%); format: functional
A549 [17] = assay: Induction of intracellular ROS generation in human A549 cells at 2 to 4 uM by DCFH-DA staining based flow cytometry analysis; format: functional, cell-based; conditions: dose 2-4 µM, time 6.0 hrs, TDE = time-dependent effect
A549 [18] = assay: Downregulation of PRDX4 level in human A549 cells at 2 to 4 uM by Western blot analysis; format: functional, cell-based; conditions: dose 2-4 µM
[19] = Toxicity in C57BL/6J mouse implanted with mouse Lewis lung carcinoma cell line assessed as heart damage at 0.5 to 1 mg/kg, ip administered every day for 19 days; format: organism-based; conditions: in vivo, 456 h, dose 0.5-1 mg/kg, time 19 day
A549 [20] = assay: Induction of cell cycle arrest in human A549 cells assessed as decrease in CDK4 level at 2 to 4 uM by Western blot analysis; format: functional, cell-based; conditions: dose 2-4 µM
A549 [21] = assay: Inhibition of cell invasion in human A549 cells incubated for 12 to 48 hrs by crystal violet staining based microscopic analysis; format: functional; conditions: dose 2-4 µM, time 12-48 hrs
Lewis lung carcinoma [22] = assay: Antitumor activity against mouse Lewis lung carcinoma cell line implanted in C57BL/6J mouse assessed as nuclear chromatin marginalization at 0.5 to 1 mg/kg, ip administered every day for 19 days by H and E staining based analysis; format: functional, organism-based; conditions: dose 0.5-1 mg/kg, time 19.0 day
A549 [23] = assay: Induction of apoptosis in human A549 cells assessed as viable cells at 2 uM incubated for 48 hrs by Annexin V-FITC and PI staining based flow cytometric analysis (reference value: 93.8%); format: functional; conditions: read-out: Activity
A549 [24] = assay: Induction of apoptosis in human A549 cells assessed as decrease in PCNA level at 2 to 4 uM by Western blot analysis; format: functional, cell-based; conditions: dose 2-4 µM
A549 [25] = assay: Induction of cell cycle arrest in human A549 cells assessed as decrease in CDK2 level at 2 to 4 uM by Western blot analysis; format: functional, cell-based; conditions: dose 2-4 µM
A549 [26] = assay: Inhibition of cell invasion in human A549 cells at 2 to 4 uM by crystal violet staining based microscopic analysis; format: functional; conditions: dose 2-4 µM, time 12-48 hrs, TDE = time-dependent effect
A549 [27] = assay: Downregulation of PRDX6 level in human A549 cells at 2 to 4 uM by Western blot analysis; format: functional, cell-based; conditions: dose 2-4 µM
[28] = Toxicity in C57BL/6J mouse implanted with mouse Lewis lung carcinoma cell line assessed as decrease in body weight at 0.5 to 1 mg/kg, ip administered every day for 19 days; format: organism-based; conditions: in vivo, 456 h, dose 0.5-1 mg/kg, time 19 day
A549 [29] = assay: Inhibition of AKT phosphorylation in human A549 cells at 2 to 4 uM by Western blot analysis; format: cell-based; conditions: dose 2-4 µM
Peroxiredoxin-1 = molecular target: T1, Peroxiredoxin-1 (Homo sapiens, UniProt Q06830); assay: Inhibition of PRDX1 (unknown origin) in presence of cofactor A/cofactor B/NADPH incubated for 25 mins; conditions: read-out: IC50
T1 sequence (Q06830 whole entry): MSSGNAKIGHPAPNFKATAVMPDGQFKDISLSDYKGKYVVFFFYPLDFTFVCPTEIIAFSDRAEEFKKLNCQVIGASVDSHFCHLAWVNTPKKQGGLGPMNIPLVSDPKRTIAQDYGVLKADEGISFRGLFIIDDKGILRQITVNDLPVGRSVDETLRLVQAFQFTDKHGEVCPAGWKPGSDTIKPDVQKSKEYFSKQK

[30] = Antitumor activity against mouse Lewis lung carcinoma cell line implanted in C57BL/6J mouse assessed as tumor growth inhibition at 1 mg/kg, ip administered every day for 19 days; format: functional; conditions: 456 h, time 19 day, read-out: TGI
A549 [31] = assay: Induction of apoptosis in human A549 cells assessed as necrotic cells at 4 uM incubated for 48 hrs by Annexin V-FITC and PI staining based flow cytometric analysis (reference value: 4.68%); format: functional
Lewis lung carcinoma [32] = assay: Antitumor activity against mouse Lewis lung carcinoma cell line implanted in C57BL/6J mouse assessed as reduction in tumor cell proliferation by measuring reduction in Ki67 expression at 0.5 to 1 mg/kg, ip administered every day for 19 days; format: functional, organism-based; conditions: dose 0.5-1 mg/kg, time 19.0 day

With CC1=C(OC(=O)/C=C/c2ccccc2)C(=O)C=C2C1=CC=C1[C@@]2(C)CC[C@@]2(C)[C@@H]3C[C@](C)(C(=O)NCc4nc(C)c(C)nc4C)CC[C@]3(C)CC[C@]12C as the compound, how does the Activity (A549 [1]) read?
Its Activity is “Active”.

What about the Activity [2] of the same compound?
Its Activity is “Non-Toxic”.

What about the IC50 (A549 [3]) of the same compound?
Its IC50 is 1.92 µM.

And the Activity (A549 [4])?
The Activity was “Active”.

What about the IC50 (NCI-H1975) of the same compound?
The IC50 was 1.99 µM.

And the inhibition in vivo at 0.5 mg/kg [5]?
The inhibition in vivo at 0.5 mg/kg was 69.9%.

And the inhibition (A549 [6])?
The inhibition was “Active”.

What about the inhibition [7] of the same compound?
The inhibition was “Active”.

And the Activity (A549 [8])?
Its Activity is “Active”.

What about the Activity [9] of the same compound?
Its Activity is “Non-Toxic”.

What about the inhibition (A549 [10]) of the same compound?
The inhibition was “Active”.

And the Activity [11]?
The Activity was “Non-Toxic”.

And the IC50 (SK-HEP1)?
The IC50 was 2.42 µM.

What about the Activity (A549 [12]) of the same compound?
The Activity was “Active”.

What about the Activity (Lewis lung carcinoma [13]) of the same compound?
Its Activity is “Active”.

What about the inhibition (A549 [14]) of the same compound?
Its inhibition is “Active”.

What about the IC50 [15] of the same compound?
The IC50 was 2.93 µM.

What about the Activity (A549 [16]) of the same compound?
Its Activity is 4.91%.

And the Activity (A549 [17])?
The Activity was “Tde”.

What about the Activity (A549 [18]) of the same compound?
The Activity was “Active”.

What about the Activity [19] of the same compound?
The Activity was “Non-Toxic”.

And the Activity (A549 [20])?
The Activity was “Active”.

And the inhibition (A549 [21])?
Its inhibition is “Dose-Dependent Effect”.

And the Activity (Lewis lung carcinoma [22])?
Its Activity is “Active”.

And the viability at 2 µM (A549 [23])?
Its viability at 2 µM is 88.4%.

And the Activity (A549 [24])?
Its Activity is “Active”.

And the Activity (A549 [25])?
The Activity was “Active”.

What about the inhibition (A549 [26]) of the same compound?
Its inhibition is “Tde”.

What about the Activity (A549 [27]) of the same compound?
Its Activity is “Active”.

And the Activity [28]?
The Activity was “Non-Toxic”.

And the inhibition (A549 [29])?
Its inhibition is “Active”.

And the IC50 (Peroxiredoxin-1)?
The IC50 was 0.164 µM.

What about the inhibition in vivo at 1 mg/kg [30] of the same compound?
Its inhibition in vivo at 1 mg/kg is 77.4%.

What about the Activity (A549 [31]) of the same compound?
The Activity was 3.04%.

What about the Activity (Lewis lung carcinoma [32]) of the same compound?
The Activity was “Active”.
